Data on seven compounds can be found in patent US20150289512A1, “METHOD FOR PROMOTING PLANT GROWTH” (SUMITOMO CHEMICAL COMPANY, LIMITED, priority 2012, published 2015).

Common to all, as to format: in vivo
Experiment [1] has as its system Rice (variety: Nipponbare). As to the kind of experiment: Test Example 1: promotion of root growth by hydroponics of rice, 10 ppm. Conditions: hydroponic solution containing the test compound at 10 ppm, average of 4 or 5 individuals. In a few lines: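 Surface-sterilised seeds germinated 3 days in the dark at 28° C in hydroponic solution with compound at 10 ppm, then grown 3 days hydroponically with compound at 10 ppm (26° C, 4,000 lux, 16 h day, 50% humidity). Seminal root length measured by image analysis, averaged over 4 or 5 plants per plot.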

The test system of experiment [2] is Corn seeds (variety: Pioneer 120 31P41). As to the kind of experiment: Test Example 14: growth promotion under low-temperature stress by soil drench treatment of corn. The conditions noted are these: soil drench 20 ml, low-temperature stress 5 days at 2.5° C., health score 0-5, average of 4 individuals. On the procedure: Test for Evaluating Growth Promotion Under Low-Temperature Stress by Soil Drench Treatment of Corn
Corn seeds (variety: Pioneer 120 31P41) were seeded in a culture soil (Aisai) in a plastic pot (φ55 mm×height of 58 mm), and cultivated for 7 days at 20-25° C., an illuminance of about 5,000 lux, and a day length of 16 hours.
A DMSO solution, which contained one of the compounds 1 to 9, 16, 17, 20, 23, 24, 28 to 32, 34, 45, 48, 50, 82 and 85 of the present invention at a concentration of 1,000-fold concentration of each test concentration, was prepared, and then diluted with distilled water to obtain each test solution. After that, 20 ml of the obtained test solution was used to perform soil drench treatment on the foot of the test plants. The test plants were cultivated for 2 days under the conditions of a temperature of 27° C., a humidity of 40-80%, an illuminance of about 5,000 lux, and a day length of 16 hours. This was used as a test plot treated with the compound. A plot having undergone the soil drench treatment with 20 ml of a 0.1% DMSO aqueous solution instead of the above DMSO solution containing the compound was used as an untreated control plot.
The plants having undergone the soil drench treatment were cultivated for 5 days under the conditions of a temperature of 2.5° C., a humidity of 40-80%, an illuminance of about 5,000 lux, and a day length of 16 hours, thereby exposing to low-temperature stress. After the exposure to the low-temperature stress, the plants were cultivated for 4 days under the conditions of a temperature of 27° C., a humidity of 40-80%, an illuminance of about 5,000 lux, and a day length of 16 hours.
After the cultivation, the health of each plant was scored according to the following evaluation index.
5: 4 or more leaves in which ⅔ or more of the area was healthy
4: 3 leaves in which ⅔ or more of the area was healthy
3: 2 leaves in which ⅔ or more of the area was healthy
2: 1 leaf in which ⅔ or more of the area was healthy
1: No leaf in which ⅔ or more of the area was healthy
An average of the scores of the health of 4 individuals was determined.

In experiment [3] the test system is Nicotiana benthamiana. As to the kind of experiment: Test Example 6: growth promotion under low-temperature stress by hydroponics of Nicotiana benthamiana, 0.1 ppm. Conditions: 0.1 ppm in medium, low-temperature stress 7 days at 1.5±1.0° C., green leaf area 3 days later, equation (1). On the procedure:
(§1) Test for Evaluating Growth Promotion Under Low-Temperature Stress by Hydroponics of Nicotiana benthamiana
A DMSO solution, which contained one of the compounds 3, 7, 14, 16, 36, 39, 43, 45, 50, 52, 53, 54, 56, 57, 62, 63, 64, 65, 68, 69, 70, 71, 73, 74, 76, 77, 79, 80, 81, 84, 85, 86 and 87 of the present invention at a concentration of 100 ppm, was prepared. The DMSO solution of the compound of the present invention was added at a volume ratio of 1/1,000 to the Murashige•Scoog medium of a ½-fold concentration for the Murashige•Scoog medium (a medium containing 2.3 g of mixed salts (manufactured by Wako Pure Chemical Industries, Ltd.), 200 mg of Myo-inositol (manufactured by Sigma-Aldrich Co. LLC.), 2 mg of nicotinic acid (manufactured by Wako Pure Chemical Industries, Ltd.), 2 mg of pyridoxine hydrochloride (manufactured by Wako Pure Chemical Industries, Ltd.), 20 mg of thiamine hydrochloride (manufactured by Wako Pure Chemical Industries, Ltd.), 20 g of sucrose (manufactured by Wako Pure Chemical Industries, Ltd.), and 1 g of MES (manufactured by DOJINDO LABORATORIES) per 1 L of water and having pH adjusted to 5.8), thereby preparing a medium containing the compound of the present invention at a concentration of 0.1 ppm.
(§2) Seeds of Nicotiana benthamiana were seeded in the 5 μL of the medium and cultured overnight at 22° C. Thereafter, 45 μL of the medium containing the compound of the present invention at a concentration of 0.1 ppm was added thereto, and the seeds are cultivated for 7 days at 22° C., an illuminance of 4,000 lux, and a day length of 16 hours, and the nursery plants raised from the Nicotiana benthamiana were treated with the compound. Moreover, instead of the above medium a test plot, which was obtained by performing the same treatment by using a medium prepared by adding DMSO to the Murashige•Scoog medium of ½-fold concentration at a volume ratio of 1/1,000, was used as a control plot not treated with the compound.
(§3) The nursery plants of the Nicotiana benthamiana treated with the compound were subjected to low-temperature treatment by being cultivated for 7 days at 1.5±1.0° C., an illuminance of 2,000 lux, and a day length of 16 hours.
The nursery plants of the Nicotiana benthamiana having undergone the low-temperature stress treatment were cultivated for 3 days at 22° C., an illuminance of 4,000 lux, and a day length of 16 hours. Thereafter, the area of green leaf was quantified by Scanalyzer HTS (manufactured by LemnaTec GmbH). Moreover, the value of the control plot not treated with the compound that had not yet been subjected to the low-temperature stress treatment was measured in the same manner. A value of a relative leaf area was calculated based on the following equation (1), and if the value of a relative leaf area was 5 or greater, the compound was evaluated to have a mitigating effect. As a result of the evaluation, it was confirmed that when the plant was treated with one of the compounds 3, 7, 14, 16, 36, 39, 43, 45, 50, 52, 53, 54, 56, 57, 62, 63, 64, 65, 68, 69, 70, 71, 73, 74, 76, 77, 79, 80, 81, 84, 85, 86 and 87 of the present invention at 0.1 ppm, the value of a relative leaf area was 5 or greater, compared to the area of green leaf of the control plot not treated with compound. Accordingly, it was confirmed that the treatment using the compound of the present invention brings about a growth promotion effect.
Relative leaf area=100*(a green area of a plot treated with the compound of the present invention−a green area of a control plot not treated with the compound of the present invention)/(a green area of a control plot not treated with the compound of the present invention that has not yet been subjected to low-temperature stress treatment−green area of a control plot not treated with the compound of the present invention) Equation (1): […]

In experiment [4] the test system is Nicotiana benthamiana. The experiment in a line: Test Example 5: growth promotion under low-temperature stress by hydroponics of Nicotiana benthamiana, 1 ppm. Conditions: 1 ppm in medium, low-temperature stress 7 days at 1.5±1.0° C., green leaf area 3 days later, equation (1). On the procedure:
as §1
A DMSO solution, which contained one of the compounds 2, 4, 5, 6, 11, 12, 17, 20, 21, 28, 30, 34, 36, 37, 51, 52, 53, 55, 56, 58, 59, 60, 64, 65, 66, 68, 69, 70, 74, 77, 82, 83, 84, 86 and 87 of the present invention at a concentration of 1,000 ppm, was prepared. The DMSO solution of the compound of the present invention was added at a volume ratio of 1/1,000 to the Murashige•Scoog medium of a ½-fold concentration (a medium containing 2.3 g of mixed salts for the Murashige•Scoog medium (manufactured by Wako Pure Chemical Industries, Ltd.), 200 mg of Myo-inositol (manufactured by Sigma-Aldrich Co. LLC.), 2 mg of nicotinic acid (manufactured by Wako Pure Chemical Industries, Ltd.), 2 mg of pyridoxine hydrochloride (manufactured by Wako Pure Chemical Industries, Ltd.), 20 mg of thiamine hydrochloride (manufactured by Wako Pure Chemical Industries, Ltd.), 20 g of sucrose (manufactured by Wako Pure Chemical Industries, Ltd.), and 1 g of MES (manufactured by DOJINDO LABORATORIES) per 1 L of water and having pH adjusted to 5.8), thereby preparing a medium containing the compound of the present invention at a concentration of 1 ppm.
as §2, with “of 1” for “of 0.1”, “are cultured” for “are cultivated”, “above medium,” for “above medium”
as §3
The nursery plants of the Nicotiana benthamiana having undergone the low-temperature stress treatment were cultured for 3 days at 22° C., an illuminance of 4,000 lux, and a day length of 16 hours. Thereafter, the area of green leaf was quantified by Scanalyzer HTS (manufactured by LemnaTec GmbH). Moreover, the value of the control plot not treated with the compound that had not yet been subjected to the low-temperature stress treatment was measured in the same manner. A value of a relative leaf area was calculated based on the following equation (1), and if the value of a relative leaf area was 5 or greater, the compound was evaluated to have a mitigating effect. As a result of the evaluation, it was confirmed that when the plant was treated with one of the compounds 2, 4, 5, 6, 11, 12, 17, 20, 21, 28, 30, 34, 36, 37, 51, 52, 53, 55, 56, 58, 59, 60, 64, 65, 66, 68, 69, 70, 74, 77, 82, 83, 84, 86 and 87 of the present invention at 1 ppm, the value of a relative leaf area was 5 or greater, compared to the area of green leaf of the control plot not treated with compound. Accordingly, it was confirmed that the treatment using the compound of the present invention brings about a growth promotion effect.
Relative leaf area=100*(a green area of a plot treated with the compound of the present invention−a green area of a control plot not treated with the compound of the present invention)/(a green area of a control plot not treated with the compound of the present invention that has not yet been subjected to low-temperature stress treatment−a green area of a control plot not treated with the compound of the present invention) Equation (1): […]

For the compound `CCOC(=O)c1cc2cc(C(F)(F)F)ccc2[nH]1` [Compound 9], the “Relative value of length of seminal root (%-untreated control plot)” value (“Relative value … (%-untreated control plot)” below) in experiment [1] is more than 5%. In addition, the “Relative value of score (%- untreated control plot)” value in experiment [2] (concentration tested 3 ppm) is listed as more than 5%.
For `COC(=O)c1nc2ccccc2n1C` [Compound 23], the “Relative value … (%-untreated control plot)” value in experiment [1] is reported as more than 5%. In addition, the “Relative value of score (%- untreated control plot)” value in experiment [2] (concentration tested 10 ppm) is more than 5%.
In the case of `COC(=O)c1nc2cc(C(F)(F)F)ccc2n1C` [Compound 24, methyl 1-methyl-5-trifluoromethylbenzimidazole-2-carboxylate], the change in vivo at 10 ppm in experiment [2] (Zea mays, 120 h, concentration tested 10 ppm, read-out: Relative value of score (%- untreated control plot)) was more than 5%.
On to `CCOC(=O)c1nc2ccccc2s1` [Compound 31], for which the “Relative value of score (%- untreated control plot)” value in experiment [2] (concentration tested 0.3 ppm) was more than 5%.
Regarding `O=C(O)c1nc2ccccc2s1` [Compound 32], the “Relative value … (%-untreated control plot)” value in experiment [1] is recorded as more than 5%. Besides, the “Relative value of score (%- untreated control plot)” value in experiment [2] (concentration tested 0.3 ppm) is listed as more than 5%.
The compound `CCOC(=O)c1oc2ccccc2c1C(F)(F)F` [Compound 84] had a relative leaf area (% of untreated control) at 0.1 ppm in the experiment with Nicotiana benthamiana [3] not below 5%. The change in vivo at 10 ppm in experiment [1] (Oryza sativa, read-out: Relative value of length of seminal root (%-untreated control plot)) is more than 5%. The relative leaf area (% of untreated control) at 1 ppm in the experiment with Nicotiana benthamiana [4] was not below 5%.
`COC(=O)c1nc2c(F)cc(F)cc2s1` [Compound 87] displayed a relative leaf area (% of untreated control) at 0.1 ppm in the experiment on Nicotiana benthamiana [3] not below 5%. For the same compound, the relative leaf area (% of untreated control) at 1 ppm in the experiment with Nicotiana benthamiana [4] is not below 5%.
